The record followed here is patent publication US20230201235A1, “INHIBITION OF NIDOVIRUSES THAT ENCODE NSP15” (The University of Chicago, priority 2020, published 2023).

The target of data set [1] is T1, Nsp15 (Severe acute respiratory syndrome coronavirus 2, UniProt P0DTD1). The data set is described as follows: Nsp15 differential scanning fluorimetry (DSF) assay. The settings on record: 10 μM Nsp15, 1 mM ligand, 10 mM MnCl2; for melting temperature (Tm) of Nsp15 in presence of ligand: same Tm as control. The class given is binding. On the procedure:
The Nsp15 differential scanning fluorimetry (DSF) assays were performed in a buffer 20 mM Tris pH 7.5, 100 mM NaCl, 1 mM TCEP that was supplemented with SYPRO™ Orange protein gel stain (Invitrogen, Carlsbad, Calif.) to 5× final concentration. 10 μM of the Nsp15 was used with the addition of each of 1 mM of tipiracil, 5′GpU, 5′UMP, 3′UMP, and TMP to get final molar ratio of protein to ligand 1:100. Additionally, the samples with ligands were supplemented with 10 mM MnCl2. After 30 min of incubation of samples at room-temperature, fluorescence measurements were done using CFX CONNECT™ Real-Time System (BioRad, Hercules, Calif.). Fluorescent signal was detected with temperature rate 1° C. per 60 sec. Samples were measured in triplicate, and the representative standard deviation of measurements are depicted for Nsp15 control sample and complex of the Nsp15 with addition of tipiracil.

For data set [2], the target named is T2, SARS-CoV-2 Nsp15 (Severe acute respiratory syndrome coronavirus 2, UniProt P0DTD1). The class given is binding. The settings on record: co-crystal structures, Table 1.
Data set [3] concerns the target T2, SARS-CoV-2 Nsp15. The data set is described as follows: Radioactivity-based endoribonuclease assay. It counts as biochemical.
Data set [4] deals with T1, Nsp15. As to the kind of experiment: Fluorescence-based endoribonuclease assay. It counts as biochemical, SARS-CoV-2. The method, then: The oligonucleotide dArUdAdA with 5′-6-FAM and 3′-6-TAMRA was synthetized by GenScript Biotech (Piscataway, N.J.). The concentration of 0.5 μM substrate was used with 2 μM Nsp15 in a buffer containing 20 mM HEPES at pH 7.8, 100 mM NaCl, and 5 mM MnCl2. Detection of the emission of FAM fluorescence signal was done on CFX CONNECT™ Real-Time System (Bio-Rad Laboratories, Hercules, Calif.).
Cleavage of oligonucleotide dArUdAdA with 5′-6-FAM and 3′-6-TAMRA substrate was tested using polyacrylamide gel electrophoresis. The concentration of labeled substrate was […], and the Nsp15 concentration varied to achieve different molar ratios of substrate to Nsp15. Samples were mixed in a buffer with 20 mM HEPES at pH 7.8, 100 mM NaCl, and 5 mM MnCl2. After 10 minutes of incubation, samples were loaded on NUPAGE Tris-Acetate 3-8% gel, and the electrophoresis was done on 80 V for 1 h. The detection of FAM emission on gel was performed using the Gel DOC™ EZ System (Bio-Rad Laboratories, Hercules, Calif.).

Data set [5] deals with SARS-CoV-2. As to the kind of experiment: Whole cell assays: spike protein immunostaining and viral RNA qRT-PCR. The class given is cell-based. (In qPCR the cycle at which signal appears reflects the starting amount.)
For data set [6], the system named is A549-hACE2 cells. The settings on record: 1-50 μM.

As to `Cc1cn([C@H]2C[C@H](OP(=O)(O)O)[C@@H](CO)O2)c(=O)[nH]c1=O` [3′TMP], in data set [1], the “melting temperature (Tm) of Nsp15 in presence of ligand” value (shortened to “melting temperature (Tm) of Nsp15”) is “approximately 60.5 °C”.
As for uridine 2′,3′-vanadate [UV], the “binding to the active site of Nsp15 in the crystal structure” value (“binding to the active site of Nsp15” below) in data set [2] is “binds directly in the active site of Nsp15”.
In general, IC50 refers to the point on the concentration scale where inhibition reaches its midpoint. In the case of `N=C1CCCN1Cc1[nH]c(=O)[nH]c(=O)c1Cl` [tipiracil, 5-chloro-6-[(2-imino-1-pyrrolidinyl)methyl]-2,4(1H,3H)-pyrimidinedione], the “binding to the active site of Nsp15” value in data set [2] is recorded as “binds directly in the active site of Nsp15”. In addition, the “melting temperature (Tm) of Nsp15” value in data set [1] was “approximately 60.5 °C”. In data set [1] (versus control), the “shift of Nsp15 denaturation profile to higher temperatures” value amounted to 0.5 °C. Moreover, the IC50 in data set [3] was 7.5 µM; in data set [4], 72 µM. The “inhibition of cleavage reaction at higher Mn2+ concentration” value in data set [3] (octamer RNA, higher Mn2+ ion concentration (15 mM MnCl2)) is reported as “no inhibition”. For the same compound, in data set [5], the “inhibition of virus (spike protein and RNA expression)” value is on record as “modest”. Besides, in data set [6], the “effect on viability of cells” value was “did not affect the viability of cells”.
`O=c1ccn([C@@H]2O[C@H](CO)[C@@H](OP(=O)(O)O)[C@H]2O)c(=O)[nH]1` [3′UMP, 3′-uridylic acid]: the “binding to the active site of Nsp15” value in data set [2] is “binds directly in the active site of Nsp15”. Moreover, the “melting temperature (Tm) of Nsp15” value in data set [1] is “approximately 60.5 °C”.
On to `O=c1ccn([C@@H]2O[C@H](COP(=O)(O)O)[C@@H](O)[C@H]2O)c(=O)[nH]1` [5′UMP, 5′-uridylic acid], for which, in data set [2], the “binding to the active site of Nsp15” value was “binds directly in the active site of Nsp15”. For the same compound, in data set [1], the “melting temperature (Tm) of Nsp15” value is “approximately 60.5 °C”.
